Results: patent publication US4927941A, “Fluorine-containing nitroazole derivatives and radiosensitizer comprising the same” (Yasunori Nishijima & Daikin Industries Ltd., priority 1987, dated 1990)

test system: hypoxic cells; assay: not given; conditions: administered in human beings; cited from earlier work

SMILES	sensitizing effect in human beings
COCC(O)Cn1ccnc1[N+](=O)[O-] (stereo not drawn) [Misonidazole, 1-(2-Nitro-1-imidazolyl)-3-methoxy-2-propanol]	No sensitizing effect was confirmed

test system: not listed separately; assay: in vivo; conditions: not given

SMILES	LD50
NC(=O)C(F)(F)Cn1cnc([N+](=O)[O-])n1 [(43), 3-(3'-nitro-1',2', 4'-triazol-1'-yl)-2,2-difluoropropionamide]	700 mg/kg
COCCNC(=O)C(F)(F)Cn1cnc([N+](=O)[O-])n1 [(2), 3-(3'-nitro-1',2',4'-triazol-1'-yl)-2,2-difluoropropionic acid methoxyethylamide]	> 3000 mg/kg
CC(C)NC(=O)C(F)(F)Cn1cnc([N+](=O)[O-])n1 [(53), 3-(3'-nitro-1', 2', 4'-triazol-1'-yl)-2,2-difluoropropionic acid isopropylamide]	600 mg/kg
CC(O)CNC(=O)C(F)(F)Cn1cnc([N+](=O)[O-])n1 (stereo not drawn) [(60), 3-(3'-nitro-1', 2', 4'-triazol-1'-yl)-2,2-difluoropropionic acid isopropanolamide]	1200 mg/kg
O=[N+]([O-])c1ncn(CC(O)CF)n1 (stereo not drawn) [(13), 1-(3'-fluoro-2'-hydroxypropyl)-3-nitro-1,2,4-triazole]	700 mg/kg
O=C(NCCO)C(F)(F)Cn1cnc([N+](=O)[O-])n1 [(3), 3-(3'-nitro-1',2',4'-triazol-1'-yl)-2,2-difluoropropionic acid hydroxyethylamide]	1600 mg/kg
COCC(F)Cn1cnc([N+](=O)[O-])n1 (stereo not drawn) [(7), 1-(2'-fluoro-3'-methoxypropyl)-3-nitro-1,2,4-triazole]	> 2000 mg/kg
O=[N+]([O-])c1ncn(CC(F)COCC(O)CO)n1 (stereo not drawn) [(65), 1-(2'-fluoro-4'-oxo-6',7'-dihydroxyheptyl)-3-nitro-1,2,4-triazole]	1600 mg/kg
NC(=O)CCNC(=O)C(F)(F)Cn1cnc([N+](=O)[O-])n1 [(62), 1-(3'-nitro-1',2',4'-triazol-1'-yl)-2,2-difluoropropionic acid 3-alanylamide]	1500 mg/kg

test system: hypoxic cells; assay: not given; conditions: versus no Misonidazole; cited from earlier work

SMILES	effectiveness as hypoxic cell sensitizer
COCC(O)Cn1ccnc1[N+](=O)[O-] (stereo not drawn) [Misonidazole, 1-(2-Nitro-1-imidazolyl)-3-methoxy-2-propanol]	about twice as effective as when no Misonidazole is used

test system: EMT-6 tumor cells; assay: Radiosensitization effect on tumor transplanted in animal (ER in vivo); design: species or system Balb/c mouse; conditions: in a low concentration
Procedure: To both thighs of male Balb/c mouse (8 weeks; 4 mice in a group), 10^5 of EMT-6 tumor cells were subcutaneously inoculated. After the diameter of the tumor reached about 1 cm, a solution of a compound to be examined in saline was intraperitonealy administered (200 mg/kg). After 40 minutes from the administration, X-ray was irradiated at a dose rate of 450 rad/min. for 5 minutes and then the mouse was sacrificed.
After the mouse was systemically sterilized, the tumor was taken out and the tissue was homogenated. Then, 22 ml of trypsin was added to the homogenate and stirred for 50 minutes at 37° C. The number of cells in the supernatant was counted. A predetermined amount of the cells was introduced in a plastic plate having a diameter of about 5 cm. To the plate, 5 ml of medium was added and cultured in a CO2 incubator. The plates containing the irradiated and unirradiated cells were removed from the incubator after 9 days and 10 days incubation, respectively. The cells were fixed by methanol and stained by Giemsa stain. Then, the number of colonies formed were counted.
The survival rate was calculated with using the unirradiated cells as control.

SMILES	ER in vivo in comparison with comparative compounds (1) and (2)
O=[N+]([O-])c1ncn(CC(O)CF)n1 (stereo not drawn) [(13), 1-(3'-fluoro-2'-hydroxypropyl)-3-nitro-1,2,4-triazole]	comparable
